Reference: ChEMBL document CHEMBL3507680, “University of Dundee, Gates Library screen for HepG2 cell viability”

Experiment: Human HepG2 cell viability assay in 384 well format
Assay type: toxicity, cell-based
Set-up: dose 125 nL, time 70.5 hour; concentration not given beside the values
Settings: HepG2 cells, read-out: Inhibition

SMILES | cytotoxicity at 70.5 h
O=C1CC(c2cccnc2)c2c(c(C(=O)O)cn2-c2ccc(Cl)cc2)N1 (stereo not drawn) | -7.08%
CN1CCN(C(=O)c2cc3sccc3n2Cc2ccccc2F)CC1 | -9.9%
CC(C)[C@H](NC(=O)Cn1nc2c(cc1=O)CCCC2)C(=O)O | -4.44%
CCn1cc(-c2nn3c(C(F)(F)F)nnc3s2)cn1 | -16.2%
CN(C)CCCNC(=O)c1nc(Cc2c(Cl)cccc2Cl)no1 | 15.3%
O=C(Nc1ccccn1)c1csc(NC2CCCC2)n1 | 1.59%
Cc1nn(C)cc1C1CC(=O)Nc2c1cnn2C (stereo not drawn) | -5.3%
Cc1nc(NC(=O)CN2C(=O)c3ccccc3NC2C(C)C)sc1C (stereo not drawn) | -11.4%
CC1CCc2[nH]c(=O)c(C(=O)N3CCc4ccccc4C3)cc2C1 (stereo not drawn) | 0.747%
COC(=O)[C@H](C)NC(=O)CSCc1nc2sc(C(C)C)cc2c(=O)[nH]1 | -9.3%
Cc1c(CC(C#N)C(=O)Nc2cccc(O)c2)cnn1C (stereo not drawn) | -12.8%
C[C@@H](O)CNc1c(NCc2ccco2)c(=O)c1=O | -12.9%
O=c1c(NCCNCCO)c(N2CCN(Cc3ccccc3)CC2)c1=O | -3.52%
CC(C)CNC(=O)CNC(=O)c1nc(Cc2c(Cl)cccc2Cl)no1 | -9.72%
O=c1c(NCCCO)c(N2CCN(c3ccccc3)CC2)c1=O | -2.43%
CCOC(=O)c1sc(NC(=O)c2cc(=O)c(OC)c[nH]2)nc1C | -8.8%
O=c1c(NCCc2ccc(O)cc2)c(NCc2ccccn2)c1=O | 6.43%
CC(C)C(=O)Nc1ccc2c(c1)ncn2CC(=O)NCCN(C)C | -7%
O=C1CC(c2cccnc2)c2c(c(C(=O)O)cn2-c2ccccc2F)N1 (stereo not drawn) | -13.2%
Cc1nn(C)cc1CC(C#N)C(=O)Nc1cccc(O)c1 (stereo not drawn) | -12.6%
CN(Cc1ccccc1)C(=O)Cn1nc(N2CCOCC2)ccc1=O | 9.2%
COc1c[nH]c(C(=O)N2CCN(c3ccccc3)CC2)cc1=O | -11.3%
COc1ccccc1CNc1c(N2CCN(C(C)=O)CC2)c(=O)c1=O | -10.2%

SMILES | cytotoxicity at 70.5 h
O=C(NC1CC1)c1cccc(Oc2ccc3nncn3n2)c1 | -4.61%
COc1ccc(-c2csc3c2c(N)nc(=O)n3CCN(C)C)cc1 | -7.62%
Cc1cc(N2CCCC2)nc(N(C)CCO)c1C#N | -9.55%
COc1ccc(-c2csc3c2c(N)nc(=O)n3CCCN(C)C)cc1 | -8.54%
CC(C)n1c(=O)c2ccccc2n(CCN2CCCCC2)c1=O | -12.6%
CN1CCCN(CC(CC(=O)Nc2ccc(Cl)cc2)C(=O)O)CC1 (stereo not drawn) | -6.04%
COCCNC(=O)Cn1cc(OCc2ccccc2)c(=O)cc1CO | -15.3%
Cc1ccc(C(=O)Nc2nnc(C(C)C)s2)c(-n2cnnn2)c1C | -5.81%
NC(=O)c1ccccc1NC(=O)CCN1CCN(c2ccccc2)CC1 | -9.88%
COc1ccc2nnc(CCC(=O)Nc3nc(C)c(C)s3)n2n1 | -9.75%
Cc1nn2cnnc2c(C)c1CCC(=O)Nc1nnc(C(C)C)s1 | 12.1%
Cn1cc(NC(=O)CNC(=O)N2CCN(c3ccc(F)cc3)CC2)cn1 | -2.76%
CC1=Nc2c(c(=O)[nH]n2C(C)C)C(c2ccc3ncccc3c2)S1 (stereo not drawn) | 0.555%
CN(C)S(=O)(=O)c1ccc(-c2nc(C#N)c(NC3CC3)o2)o1 | -4.74%
O=C(CCc1ccc(-n2cnnn2)cc1)Nc1ccncc1 | -7.21%
Cn1cc(NC(=O)CNC(=O)N2CCN(c3ccc(Cl)cc3)CC2)cn1 | -5.62%
CC(C)OCC(=O)Nc1ccc(Oc2ccc3c(c2)OCO3)nc1 | -5.21%
COc1coc(C(=O)Nc2nc(-c3ccncc3)cs2)cc1=O | -11.9%
COc1ccc(NC(=O)c2nc(C)sc2C(C)C)cn1 | -9.52%
O=C(CCc1nc2cccnc2[nH]1)Nc1ccc2c(c1)NC(=O)CO2 | 8.55%
O=C(Nc1cccnc1-n1cc(Cl)cn1)C1CCCC1 | -29.5%
COc1ccc2nnc(CCCC(=O)NCc3ccccc3)n2n1 | -13.2%
O=C1CC(c2ccc(C(=O)O)cc2)c2cnn(Cc3ccco3)c2N1 (stereo not drawn) | -25.8%

SMILES | cytotoxicity at 70.5 h
Cc1nn2c(-c3cnn(C)c3)nnc2s1 | -7.18%
CC(C)(C)C1CC(=O)Nc2c1cnn2Cc1ccco1 (stereo not drawn) | -17.9%
O=C1CCC(c2ccc(Cl)cc2)=NN1CN1CCCCCC1 | -4.16%
COc1coc(C(=O)Nc2nc(-c3cccnc3)cs2)cc1=O | -13.5%
C[C@H](NC(=O)N1CCN(c2ccc(Cl)cc2)CC1)C(=O)N1CCSCC1 | -14.7%
COc1ccc2nnc(CCC(=O)Nc3nc4c(s3)CCCCC4)n2n1 | -17.3%
Cc1cc(O)cc(=O)n1CCCC(=O)Nc1n[nH]c2ccccc12 | -11.5%
Cn1cc(-c2nnc3sc(C4CCC4)nn23)cn1 | -12.3%
Cc1ccc(S(=O)(=O)c2ncccc2CN2CCCC2)cc1 | -22.8%
Cn1ccc2c(C(=O)NC3CN4CCC3CC4)cccc21 (stereo not drawn) | -32.2%
Cc1cc(C)nc(N2CCC(C(=O)Nc3n[nH]c(CC(C)C)n3)CC2)n1 | -12%
Cc1cc(C)nc(NCCC(=O)Nc2ccc(Cn3cncn3)cc2)n1 | -9.08%
CC(C)[C@H](NC(=O)N1CCN(c2ccc(Cl)cc2)CC1)C(=O)NC1CC1 | -17%
Cc1ccc(C(=O)N2C[C@@H]3CN(S(C)(=O)=O)CCO[C@@H]3C2)o1 | -0.0736%
CC(=O)N1CCC2(CC1)C(=O)N(C)c1c(F)cccc12 | 3.91%
CC(C)CNC(=O)c1cc2c(s1)CCN2Cc1cccnc1 | -1.22%
COCCCN1CCCCC12CC(=O)N(Cc1ccccn1)C2 (stereo not drawn) | -1.98%
Cn1cc(CN2CCc3ncnc(N4CCCC4)c3CC2)cn1 | -0.713%
Cn1cccc1C(=O)N1C[C@@H]2CCCO[C@@H]2[C@H](N2CCOCC2)C1 | 0.647%
Cc1ccc(CC(=O)N2CC[C@@H]3NC(=O)CC[C@@H]32)cc1 | 4.9%
CN(C)CCN1CCOC2(CCN(c3nccs3)CC2)c2ccccc21 | 28.7%
CS(=O)(=O)N1CCOC2(CCN(c3nccs3)CC2)c2ccccc21 | 15.3%
Cc1csc(N2CCN(CC(=O)NC3CCOCC3)CC2C)n1 (stereo not drawn) | -1.39%

SMILES | cytotoxicity at 70.5 h
Cc1nn(C)c(C)c1C1CCCN1C(=O)c1ccc2nnc(C)n2c1 (stereo not drawn) | -2.36%
CC(C)N(Cc1ccccn1)S(=O)(=O)N1CCCC1c1ccco1 (stereo not drawn) | 3.04%
N#CCCN(C(=O)CN1CCCC1c1cccs1)c1ccccc1F (stereo not drawn) | 1.76%
CCc1ccc(C(=O)N2CCCCC2Cn2cccn2)o1 (stereo not drawn) | 6.61%
Cc1cnn(CCNCc2ccccc2F)c1 | 0.747%
Cc1ccc(OCCN2CCN(Cc3cnn(CCO)c3)CC2)cc1 | -0.0785%
CN(Cc1cnn(C)c1)C(=O)NCc1cc(Br)cs1 | -2.54%
Cc1ncsc1C(=O)NCCc1cccs1 | 2.38%
N#CCCN(C(=O)CN1CCCC1c1ccsc1)c1ccccc1 (stereo not drawn) | 20.9%
Cc1cncc(C(=O)NCCSCc2cccs2)c1 | -3.14%
CCc1nnc2n1CCN(Cc1cccc3c1OCCO3)C2 | 21.6%
c1ccc(-c2nnc3n2CCN(Cc2ccc4c(c2)OCCO4)C3)cc1 | 26.9%
c1ccc2oc(CN3CCCC3c3noc(C4CC4)n3)nc2c1 (stereo not drawn) | -11.3%
CCOc1ncccc1CNc1nnc(C)c(C)c1C#N | -0.879%
Cc1nnc(NCc2ccccc2F)c(C#N)c1C | -5.23%
Cc1nnc(NCc2ccccc2S(=O)(=O)N(C)C)c(C#N)c1C | 0.114%
COc1cccc(C(NCc2ccc(SC)cc2)c2nccn2C)c1 (stereo not drawn) | 3.42%
COc1ccccc1C(NCc1ccc(SC)cc1)c1nccn1C (stereo not drawn) | 11.2%
O=C(NCCn1nc2ccccn2c1=O)c1scnc1Cl | -2.79%
Cn1ccnc1C(NCc1ccccc1)c1ccc(F)cc1 (stereo not drawn) | -2.68%
Cc1ncncc1C(=O)NCCn1nc2ccccn2c1=O | -3.41%
Cc1nnc(NCc2cccnc2OCC(F)(F)F)c(C#N)c1C | -0.691%
Cc1nc(C)c(C(=O)NCCn2nc3ccccn3c2=O)s1 | -1.89%

SMILES | cytotoxicity at 70.5 h
CCc1nnc2n1CCN(Cc1cc(Cl)c3c(c1)OCCCO3)C2 | 0.524%
CN(C)S(=O)(=O)c1ccc(-c2nc(C#N)c(NC(C)(C)C)o2)o1 | -8.34%
CN1C(=O)C2(CCN(C(=O)c3ccccc3)CC2)c2cccc(F)c21 | 0.835%
CSc1ccc(CNC(c2ccccc2F)c2nccn2C)cc1 (stereo not drawn) | 0.516%
Cc1cccc(CN2CCS(=O)(=O)[C@@H]3CCN(S(C)(=O)=O)CC[C@@H]32)n1 | 17.2%
CN(C)C(=O)N[C@H]1CN(C2CCOCC2)[C@@H]2CCCO[C@H]12 | 17.6%
Cc1noc(C)c1CN1CC2(CCCCN2C)CC1=O (stereo not drawn) | 17.1%
CCc1ccc(CN2CCc3ncnc(N4CCOCC4)c3CC2)o1 | -1.4%
CN(C)CC(=O)N1CCc2ncnc(-c3cncnc3)c2CC1 | -3.5%
O=C1NC2(CCN(CC3CC3)CC2)CC1c1ccccc1 (stereo not drawn) | -1.19%
O=C([C@H]1C[C@@H]2[C@@H](C1)OCCN2CC1CC1)N1CCCC1 | -1.83%
O=C(c1ccccc1)N1C[C@@H]2CCCO[C@@H]2[C@H](N2CCOCC2)C1 | 1.03%
O=C(c1ccoc1)N1CCCC2(CCC(=O)N2Cc2cccnc2)C1 (stereo not drawn) | 2.4%
O=C(NC1CC1)N1CCc2ccc(=O)n(Cc3cccnc3)c2CC1 | 6.33%
Cc1ccc(CN2CCOC3(CCN(C(=O)C4CC=CC4)CC3)C2)cc1 | -2.99%
CCn1nnc2c1C(COCCN(C)C)CN(S(=O)(=O)CC)C2 (stereo not drawn) | -1.87%
COc1cccc(CN2CCC3(CC2)CCN(c2ncc(C)cn2)C3)c1 | -0.283%
c1cnc(N2CCO[C@H]3[C@H](OCCN4CCCC4)CC[C@@H]32)nc1 | 0.11%
CC(C)N(C)Cc1nnc2n1CCN(CC1CC1)CC2 | -0.138%
Cc1ccc2c(n1)N(C)CCN(Cc1ccco1)C2 | -1.42%
Cc1ccc2c(n1)N(C)CCN(CCN1CCCC1)C2 | 4.19%
